Assay results as given in PubChem BioAssay (NCI).
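A five-concentration, 48-hour dose response in 96-well plates underlies each endpoint, interpolated linearly between surrounding concentrations. Definition used: TGI = concentration required for complete inhibition of growth.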

Experiments:
Assay in all cases: NCI-60 cell line screen, 48 h
[1] = system: HCT-116 colon
[2] = system: IGROV1 ovarian
[3] = system: NCI-H226 lung
[4] = system: SN12C renal
[5] = system: SR leukemia
[6] = system: HT29 colon
[7] = system: RXF 393 renal
[8] = system: OVCAR-4 ovarian
[9] = system: OVCAR-3 ovarian
[10] = system: RPMI-8226 leukemia

Row | Structure (SMILES) | TGI [1] [µM] | TGI [2] [µM] | TGI [3] [µM] | TGI [4] [µM] | TGI [5] [µM] | TGI [6] [µM] | TGI [7] [µM] | TGI [8] [µM] | TGI [9] [µM] | TGI [10] [µM]
1 | Oc1ccc(Cl)cc1C1=N/C(=N\CN2CCN(C/N=C3/N=C(c4cc(Cl)ccc4O)CC(c4ccccc4)N3)CC2)NC(c2ccccc2)C1 (stereo not given) | 46.3 | > 100 | > 100 | 64.3 | > 100 | > 100 | 43.3 | 78 | 55.4 | 76.1
2 | Cc1ccc(S(=O)(=O)N/C(=C\C=C\c2ccccc2)C(=O)C(C)(C)C)cc1 | > 100 | > 100 | > 100 | > 100 | > 100 | > 100 | > 100 | > 100 | > 100 | 75.9
3 | Cn1ccnc1Sc1ccc(/C=N/NC(=O)c2ccccc2O)cc1[N+](=O)[O-] | > 100 | > 100 | > 100 | > 100 | > 100 | > 100 | > 100 | > 100 | > 100 | 41.2
4 | CC(C)CCCC(C)[C@H]1CCC2[C@@H]3CCC4Cc5nc6c(nc5C[C@]4(C)C3CC[C@@]21C)CC1CC[C@@H]2C(C[C@@H](O)[C@@]3(C)C2C[C@@H]2OC4(CCC(C)CO4)C(C)[C@@H]23)[C@@]1(C)C6 (stereo not given in full) | > 100 | > 100 | > 100 | > 100 | > 100 | > 100 | > 100 | > 100 | > 100 | > 100
